# Results from patent US12459922B2 (Gilead Sciences, Inc., priority 2022, dated 2025).
# System: endogenous cellular STAT1 (phosphorylated at Tyr701) in NCI-H1373 cells
# Assay: Phospho-STAT1 (Tyr701) LANCE Ultra TR-FRET Detection Assay
# Format: cell-based
# Settings: Homo sapiens, NCI-H1373, 48 h, phospho-STAT1 (Tyr701) induction, read-out: NH1373 pSTAT1 EC50
row,EC50 [nM],SMILES
1,4.03,"C[C@@H](CCCn1cnc2cc(-c3ncc(C(F)(F)F)c(N4CCOCC4)n3)c(F)cc2c1=O)Nc1cn[nH]c(=O)c1C(F)(F)F [Example 201, (S)-6-fluoro-7-(4-morpholino-5-(trifluoromethyl)pyrimidin-2-yl)-3-(4-((6-oxo-5-(trifluoromethyl)-1,6-dihydropyridazin-4-yl)amino)pentyl)quinazolin-4(3H)-one]"
2,1.84,"C[C@@H](CCCn1ccc2cc(-c3ncc(Cl)c(N)n3)c(F)cc2c1=O)Nc1cn[nH]c(=O)c1C(F)(F)F [Example 202, (S)-6-(4-amino-5-chloropyrimidin-2-yl)-7-fluoro-2-(4-((6-oxo-5-(trifluoromethyl)-1,6-dihydropyridazin-4-yl)amino)pentyl)isoquinolin-1(2H)-one]"
3,45.1,C[C@@H](CCCn1cnc2cc(-c3cc4c(cn3)C(F)(F)CC4)c(F)cc2c1=O)Nc1cn[nH]c(=O)c1C(F)(F)F [Example 204]
4,75.8,COc1cnc(-c2cc3ccn(CCC[C@H](C)Nc4cn[nH]c(=O)c4C(F)(F)F)c(=O)c3cc2F)nc1N1CC2(COC2)C1 [Example 205]
5,157,COc1cnc(-c2cc3ccn(CCC[C@H](C)Nc4cn[nH]c(=O)c4C(F)(F)F)c(=O)c3cc2F)nc1N1CC(O)C1 [Example 207]
6,206,COc1cnc(-c2cc3ncn(CCC[C@H](C)Nc4cn[nH]c(=O)c4C(F)(F)F)c(=O)c3cc2F)nc1N1CC(O)C1 [Example 208]
7,41.2,COc1cnc(-c2cc3ncn(CCC[C@H](C)Nc4cn[nH]c(=O)c4C(F)(F)F)c(=O)c3cc2F)nc1N1CC(C#N)C1 [Example 209]
8,132,COc1cnc(-c2cc3ccn(CCC[C@H](C)Nc4cn[nH]c(=O)c4C(F)(F)F)c(=O)c3cc2F)nc1N1CC(F)(F)C1 [Example 210]
9,28.3,COc1cnc(-c2cc3ncn(CCC[C@H](C)Nc4cn[nH]c(=O)c4C(F)(F)F)c(=O)c3cc2F)nc1N1CC(F)(F)C1 [Example 211]
10,36.6,C[C@@H](CCCn1cnc2cc(-c3ccc(C(F)(F)F)c(N)n3)c(F)cc2c1=O)Nc1cn[nH]c(=O)c1C(F)(F)F [Example 212]
11,11.5,C[C@@H](CCCn1ccc2cc(-c3ccc(C(F)(F)F)c(N)n3)c(F)cc2c1=O)Nc1cn[nH]c(=O)c1C(F)(F)F [Example 213]
12,17.9,CNc1nc(-c2cc3ccn(CCC[C@H](C)Nc4cn[nH]c(=O)c4C(F)(F)F)c(=O)c3cc2F)ncc1OC [Example 214]
13,36.1,"CCNc1nc(-c2cc3ccn(CCC[C@H](C)Nc4cn[nH]c(=O)c4C(F)(F)F)c(=O)c3cc2F)ncc1OC [Example 215, (S)-6-(4-(ethylamino)-5-methoxypyrimidin-2-yl)-7-fluoro-2-(4-((6-oxo-5-(trifluoromethyl)-1,6-dihydropyridazin-4-yl)amino)pentyl)isoquinolin-1(2H)-one]"
14,39.3,"COc1cnc(-c2cc3ccn(CCC[C@H](C)Nc4cn[nH]c(=O)c4C(F)(F)F)c(=O)c3cc2F)nc1NC1CC1 [Example 216, (S)-6-(4-(cyclopropylamino)-5-methoxypyrimidin-2-yl)-7-fluoro-2-(4-((6-oxo-5-(trifluoromethyl)-1,6-dihydropyridazin-4-yl)amino)pentyl)isoquinolin-1(2H)-one]"
15,1580,"COc1cnc(-c2cc3ccn(CCC[C@H](C)Nc4cn[nH]c(=O)c4C(F)(F)F)c(=O)c3cc2F)nc1NC1COC1 [Example 217, (S)-7-fluoro-6-(5-methoxy-4-(oxetan-3-ylamino)pyrimidin-2-yl)-2-(4-((6-oxo-5-(trifluoromethyl)-1,6-dihydropyridazin-4-yl)amino)pentyl)isoquinolin-1(2H)-one]"
16,1100,"COc1cnc(-c2cc3ccn(CCC[C@H](C)Nc4cn[nH]c(=O)c4C(F)(F)F)c(=O)c3cc2F)nc1NCCO [Example 218, (S)-7-fluoro-6-(4-((2-hydroxyethyl)amino)-5-methoxypyrimidin-2-yl)-2-(4-((6-oxo-5-(trifluoromethyl)-1,6-dihydropyridazin-4-yl)amino)pentyl)isoquinolin-1(2H)-one]"

row,EC50 [nM],SMILES
1,430,"COc1cnc(-c2cc3ccn(CCC[C@H](C)Nc4cn[nH]c(=O)c4C(F)(F)F)c(=O)c3cc2F)nc1NC1(C(F)F)CC1 [Example 219, (S)-6-(4-((1-(difluoromethyl)cyclopropyl)amino)-5-methoxypyrimidin-2-yl)-7-fluoro-2-(4-((6-oxo-5-(trifluoromethyl)-1,6-dihydropyridazin-4-yl)amino)pentyl)isoquinolin-1(2H)-one]"
2,195,"COc1cnc(-c2cc3ncn(CCC[C@H](C)Nc4cn[nH]c(=O)c4C(F)(F)F)c(=O)c3cc2F)nc1NC1CC1 [Example 220, (S)-7-(4-(cyclopropylamino)-5-methoxypyrimidin-2-yl)-6-fluoro-3-(4-((6-oxo-5-(trifluoromethyl)-1,6-dihydropyridazin-4-yl)amino)pentyl)quinazolin-4(3H)-one]"
3,15.3,"C[C@@H](CCCn1ccc2cc(-c3ncc(C(F)F)c(NC4CC4)n3)c(F)cc2c1=O)Nc1cn[nH]c(=O)c1C(F)(F)F [Example 221, (S)-6-(4-(cyclopropylamino)-5-(difluoromethyl)pyrimidin-2-yl)-7-fluoro-2-(4-((6-oxo-5-(trifluoromethyl)-1,6-dihydropyridazin-4-yl)amino)pentyl)isoquinolin-1(2H)-one]"
4,258,"C[C@@H](CCCn1ccc2cc(-c3ncc(C(F)F)c(NCCO)n3)c(F)cc2c1=O)Nc1cn[nH]c(=O)c1C(F)(F)F [Example 222, (S)-6-(5-(difluoromethyl)-4-((2-hydroxyethyl)amino)pyrimidin-2-yl)-7-fluoro-2-(4-((6-oxo-5-(trifluoromethyl)-1,6-dihydropyridazin-4-yl)amino)pentyl)isoquinolin-1(2H)-one]"
5,33.3,"C[C@@H](CCCn1ccc2cc(-c3ncc(C(F)F)c(N[C@@H]4C[C@@H]4F)n3)c(F)cc2c1=O)Nc1cn[nH]c(=O)c1C(F)(F)F [Example 223, 6-(5-(difluoromethyl)-4-(((1R,2S)-2-fluorocyclopropyl)amino)pyrimidin-2-yl)-7-fluoro-2-((S)-4-((6-oxo-5-(trifluoromethyl)-1,6-dihydropyridazin-4-yl)amino)pentyl)isoquinolin-1(2H)-one]"
6,6.14,"C[C@@H](CCCn1ccc2cc(-c3ccc(C(F)F)c(N)n3)c(F)cc2c1=O)Nc1cn[nH]c(=O)c1C(F)(F)F [Example 224, (S)-6-(6-amino-5-(difluoromethyl)pyridin-2-yl)-7-fluoro-2-(4-((6-oxo-5-(trifluoromethyl)-1,6-dihydropyridazin-4-yl)amino)pentyl)isoquinolin-1(2H)-one]"
7,957,"C[C@@H](CCCn1ccc2cc(-c3ncc4c(n3)CS(=O)(=O)C4)c(F)cc2c1=O)Nc1cn[nH]c(=O)c1C(F)(F)F [Example 225, (S)-6-(6,6-dioxido-5,7-dihydrothieno[3,4-d]pyrimidin-2-yl)-7-fluoro-2-(4-((6-oxo-5-(trifluoromethyl)-1,6-dihydropyridazin-4-yl)amino)pentyl)isoquinolin-1(2H)-one]"
8,5.34,"O=c1[nH]ncc(N[C@H]2CCC[C@@H](Cn3ccc4cc(-c5ncc(C(F)F)cn5)c(F)cc4c3=O)C2)c1C(F)(F)F [Example 226, 6-[5-(difluoromethyl)pyrimidin-2-yl]-7-fluoro-2-[[(1R,3S)-3-[[6-oxo-5-(trifluoromethyl)-1H-pyridazin-4-yl]amino]cyclohexyl]methyl]isoquinolin-1-one]"
9,15.7,"Nc1nc(-c2cc3ccn(C[C@H]4CCC[C@H](Nc5cn[nH]c(=O)c5C(F)(F)F)C4)c(=O)c3cc2F)ncc1C(F)(F)F [Example 227, 6-(4-amino-5-(trifluoromethyl)pyrimidin-2-yl)-7-fluoro-2-(((1S,3S)-3-((6-oxo-5-(trifluoromethyl)-1,6-dihydropyridazin-4-yl)amino)cyclohexyl)methyl)isoquinolin-1(2H)-one]"
10,10000,"O=c1[nH]ncc(N[C@H]2CCC[C@H](Cn3ccc4cc(-c5ncc(C(F)(F)F)cn5)c(F)cc4c3=O)C2)c1C(F)(F)F [Example 228, 7-fluoro-2-(((1S,3S)-3-((6-oxo-5-(trifluoromethyl)-1,6-dihydropyridazin-4-yl)amino)cyclohexyl)methyl)-6-(5-(trifluoromethyl)pyrimidin-2-yl)isoquinolin-1(2H)-one]"
11,72.5,"O=c1[nH]ncc(N[C@H]2COC[C@@H](Cn3ccc4cc(-c5ncc(C(F)(F)F)cn5)c(F)cc4c3=O)C2)c1C(F)(F)F [Example 229, 7-fluoro-2-(((3R,5R)-5-((6-oxo-5-(trifluoromethyl)-1,6-dihydropyridazin-4-yl)amino)tetrahydro-2H-pyran-3-yl)methyl)-6-(5-(trifluoromethyl)pyrimidin-2-yl)isoquinolin-1(2H)-one]"
12,115,"Nc1nc(-c2cc3ccn(C[C@@H]4COC[C@H](Nc5cn[nH]c(=O)c5C(F)(F)F)C4)c(=O)c3cc2F)ncc1C(F)(F)F [Example 230, 6-(4-amino-5-(trifluoromethyl)pyrimidin-2-yl)-7-fluoro-2-(((3R,5R)-5-((6-oxo-5-(trifluoromethyl)-1,6-dihydropyridazin-4-yl)amino)tetrahydro-2H-pyran-3-yl)methyl)isoquinolin-1(2H)-one]"
13,5.92,"Nc1nc(-c2cc3ccn(C[C@@H]4CCC[C@H](Nc5cn[nH]c(=O)c5C(F)(F)F)C4)c(=O)c3cc2F)ncc1C(F)F [Example 231, 6-(4-amino-5-(difluoromethyl)pyrimidin-2-yl)-7-fluoro-2-(((1R,3S)-3-((6-oxo-5-(trifluoromethyl)-1,6-dihydropyridazin-4-yl)amino)cyclohexyl)methyl)isoquinolin-1(2H)-one]"
14,1.67,"O=c1[nH]ncc(N[C@H]2CCC[C@@H](Cn3ccc4cc(-c5ncc(C(F)(F)F)cn5)c(F)c(F)c4c3=O)C2)c1C(F)(F)F [Example 232, 7,8-difluoro-2-(((1R,3S)-3-((6-oxo-5-(trifluoromethyl)-1,6-dihydropyridazin-4-yl)amino)cyclohexyl)methyl)-6-(5-(trifluoromethyl)pyrimidin-2-yl)isoquinolin-1(2H)-one]"
15,1.95,O=c1[nH]ncc(N[C@H]2CCC[C@@H](Cn3ccc4cc(-c5ncc(C(F)F)cn5)c(F)c(F)c4c3=O)C2)c1C(F)(F)F [Example 233]
